Laboratory results from article PMC11197535, “Reprogramming of phytopathogen transcriptome by a non-bactericidal pesticide residue alleviates its virulence in rice” (Fundamental Research, 2022).

Biological target: T1, TroK (Burkholderia plantarii, UniProt A0A0B6RRK0)
T1 construct: gene BGL_1c34780
Assay: SPR (Biacore T200, multiple cycle kinetics)
Type: binding
Details: TroK immobilised on CM7 chip by amine coupling; 10 mM PBS, pH 7.4, 150 mM NaCl, DMSO; free ATT
Text: SPR (Biacore T200, multiple cycle kinetics) on TroK | thiazole could directly bind to the purified TroK in the transmembrane region

T1 sequence (A0A0B6RRK0 entry or part of it): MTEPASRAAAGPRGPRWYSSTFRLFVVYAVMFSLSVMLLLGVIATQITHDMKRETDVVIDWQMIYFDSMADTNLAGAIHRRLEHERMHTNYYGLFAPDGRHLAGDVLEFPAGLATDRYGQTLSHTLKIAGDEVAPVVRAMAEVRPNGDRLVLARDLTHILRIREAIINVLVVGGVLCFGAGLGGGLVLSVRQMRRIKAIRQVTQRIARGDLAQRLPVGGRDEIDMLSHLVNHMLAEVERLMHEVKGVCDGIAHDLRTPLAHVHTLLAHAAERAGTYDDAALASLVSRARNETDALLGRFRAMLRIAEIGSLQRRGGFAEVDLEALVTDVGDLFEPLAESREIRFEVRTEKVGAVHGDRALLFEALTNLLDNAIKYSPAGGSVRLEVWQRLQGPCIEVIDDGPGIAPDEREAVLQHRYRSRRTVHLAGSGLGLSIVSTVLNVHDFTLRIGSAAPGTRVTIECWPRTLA

In the case of `Nc1nnc(S)s1` [ATT, 5-Amino-1,3,4-thiadiazole-2-thiol], the Kd is reported as 728 nM.
